The numbers were not newly measured in patent publication US20060140985A1, “Lansoprazole formulations and related processes and methods” (priority 2003, published 2006), which cites them from elsewhere.

Experiment in series [1]: not given
The source holds these as a separate data set.

Experiment in series [2]: not given
This is another data set of the same source.

In another series the test system is gastric acid secretion. The note with it: in vivo.

Read-outs that look alike come from different tables or passages of the source.

Take `Cc1c(OCC(F)(F)F)ccnc1C[S+]([O-])c1nc2ccccc2[nH]1` (centres unmarked) [Lansoprazole, 2-[[[3-methyl-4 (2,2,2-trifluoroethoxy)-2-pyridyl]methyl]sulfinyl]benzimidazole]: the “degradation in aqueous solution” value (aqueous solution, pH dependence) is recorded as “degrades in aqueous solution, with the rate of degradation increasing with decreasing pH”. Further, for the setting “light”, the “stability when exposed to light” value is “stable when exposed to light for up to two months”. Further, the solubility entry is recorded as “slightly soluble” in series [1] (acetonitrile); “slightly soluble” in series [1] (dichloromethane); “freely soluble” in series [1] (dimethylformamide); “sparingly soluble” in series [1] (ethanol); “very slightly soluble” in series [1] (ether); “slightly soluble” in series [1] (ethyl acetate). Moreover, the figures for the solubility result in series [1] (hexane), in series [1] (methanol) and in series [1] (water) were “practically insoluble”, “soluble” and “practically insoluble”, respectively. Besides, the metabolism entry in series [2] (liver) was “extensively metabolized in the liver”. Also, the plasma elimination half-life result in series [2] (plasma) is given as “less than two hours”. Moreover, the “duration of acid inhibitory effect” value in the series on gastric acid secretion is listed as “more than twenty-four hours”.
